Assays:
MCF-7 cells [1] = test: [3H]-Thymidine incorporation assay; format: cell-based, human; settings: for effect on MCF-7 cell proliferation ([3H]-thymidine incorporation): 3 days treatment, FIG. 2 and 3
Protocol: MCF-7 cells (10,000 cells/well) were subcultured in 24 well plates and treated with hormone for 3 days in graded concentrations (FIG. 2). For the last 12 hours, [^3H]-thymidine (0.5 μCi/well) was added to cells. Cells were treated with TCA (20% for 15 minutes, twice with 10% for 3 minutes, and ethanol for 3 minutes). Acid-insoluble material was dissolved in 1 N NaOH, then neutralized with 1 N HCl. Radioactivity was measured by liquid scintillation counting. Data were expressed as radioactivity (% of control). The control was cells treated with vehicle (0.1% ethanol). […] Anti-proliferative effects of BCA11 and calcitriol were additive.

MCF-7 cells [2] = test: In vivo inhibition of advanced stage tumor growth; design: species or system athymic nude mice; settings: 2 mg/kg on alternate days, day 35, estrogen pellets
Protocol: MCF-7 cells were injected with Matrigel (10 mg/ml) into 7 weeks old female athymic nude mice (10 mice/treatment group). Tumors were grown in the presence of implanted estrogen pellets (0.72 mg pellets). Four weeks after inoculation, mice were treated for 5 weeks with hormones or vehicle (propylene glycol) on alternate days. BCA11 was added at a concentration of 1 μg/kg and Tamoxifen was added at a concentration of 2 mg/kg.

BT20 cells [3] = test: Effect of dietary vitamin D on BT20 tumor growth; format: in vivo, athymic nude mice; settings: for tumor weight: day 69
Protocol: BT20 cells (estrogen receptor-negative, human breast cancer cells; 5 million) were injected with Matrigel (10 mg/ml) into each flank of 10 weeks old female athymic nude mice. Tumor growth was monitored for six weeks on a low-calcium diet (0.4% Ca, 0.3% P and no vitamin D; Harlan Teklad). Then, mice bearing equal number and size tumors were randomly selected for treatment groups. One group continued on the low-calcium diet (serum 25-OH-D3 approx. 2 pg/ml) and received vehicle and the other group was placed on a normal diet (1.19% Ca, 0.86% P, and 6.6 mg/kg vitamin D; serum 25-OH-D3 approx. 18 pg/ml) and received vehicle.
Six weeks old female athymic mice were placed on diets of 0.5% Ca, 0.3% P, and either no vitamin D (serum 25-OH-D3 approx. 3 pg/ml; serum calcitriol approx. 30 pg/ml) or vitamin D (4 mg/kg (serum 25-OH-D3 approx. 34 pg/ml; serum calcitriol approx. […]) or 40 mg/kg (serum 25-OH-D3 approx. 73 pg/ml; serum calcitriol approx. 70 pg/ml)). Two weeks later, BT20 cells (5 million) were injected with Matrigel (10 mg/ml) into each flank and tumor growth was monitored in the absence of drug treatment.

BT20 cells [4] = test: Growth of estrogen receptor-negative breast cancer in vivo; design: species or system athymic nude mice
Protocol: BT20 cells (estrogen receptor-negative, human breast cancer cells; 5 million) were injected with Matrigel (10 mg/ml) into each flank of 10 weeks old female athymic nude mice. Mice were maintained on a low-calcium diet (0.4% Ca, 0.3% P and no vitamin D; Harlan Teklad). Then, mice bearing equal number and size tumors were randomly selected for treatment groups. […] Treatment groups received 1.5 μg/kg BCA11 at approximately 21 days after injection of cells. Control groups received vehicle (25% propylene glycol and 75% saline). Drugs or vehicle were injected i.p. three times per week. Tumor growth was monitored biweekly with caliper measurements. […] (Biochem. Pharmacol. (1992)). […] After about four weeks, the mice were divided into treatment and control groups. […] Control groups received vehicle (25% propylene glycol and 75% saline). Drugs or vehicle were injected i.p. three times per week. Tumor growth was monitored biweekly with caliper measurements. Tumor volumes were calculated as indicated in Example 7.

[5] = Serum calcium and toxicity with chronic in vivo administration; design: species or system athymic nude mice; settings: 1 μg/kg alternate days, 5 weeks, FIG. 7
Protocol: MCF-7 cells were injected with Matrigel (10 mg/ml) into 7 weeks old female athymic nude mice. Tumors were grown in the presence of implanted estrogen pellets (0.72 mg pellets). After four weeks inoculation, mice were treated for 5 weeks with hormones or vehicle (propylene glycol) control on alternate days. BCA11 and EB1089 were added at a concentration of 1 μg/kg. Serum was drawn throughout hormone treatment from the orbital vein of the mice and assayed by the Department of Clinic Chemistry, National Institutes of Health, by methods well-known in the art. […] Similar results were obtained from multiple blood samples taken from the phase II study. Calcium and phosphorous levels were assayed by Ani Lytics and fell within normal ranges. In addition, alkaline phosphatase, albumin, bilirubin and creatinine levels were measured in both phases.

Q: With `C[C@]12CC[C@@H]3c4ccc(O)cc4CC[C@H]3[C@@H]1CC[C@@H]2O` [17β Estradiol] as the compound, how does the “effect on MCF-7 cell proliferation ([3H]-thymidine incorporation)” value (MCF-7 cells [1]) read?
A: stimulate cell growth

Q: Which “inhibition of tumor growth (tumor volume) compared to control” value (MCF-7 cells [2]) does the source give for `CC/C(=C(\c1ccccc1)c1ccc(OCCN(C)C)cc1)c1ccccc1` [Tamoxifen] here?
A: about 50%

Q: What does the source list for vitamin D?
A: tumor volume (BT20 cells [3]; diet with 4 mg/kg vitamin D, 36 days after injection of BT20 cells): approximately 12.5 mm^3; tumor weight (BT20 cells [3]; diet with 4 mg/kg vitamin D): approximately 0.3 g; tumor volume (BT20 cells [3]; diet with 40 mg/kg vitamin D, 36 days after injection of BT20 cells): approximately 9.5 mm^3; tumor weight (BT20 cells [3]; diet with 40 mg/kg vitamin D): approximately 0.19 g; tumor volume (BT20 cells [3]; normal diet with 6.6 mg/kg vitamin D, 41 days after inoculation): approx. 37 mm^3

Q: With `C=C1/C(=C\C=C2/CCC[C@]3(C)[C@@H]([C@H](C)/C=C/C=C/C(O)(CC)CC)CC[C@@H]23)C[C@@H](O)C[C@@H]1O` [EB1089] as the compound, how does the tumor weight (BT20 cells [4]; 1.0 μg/kg, day 69) read?
A: ~0.07 g

Q: And the tumor volume (BT20 cells [4]; i.p. three times per week, around 60 days of treatment, 4 mg/kg vitamin D diet)?
A: approximately 14 mm^3

Q: What about the serum calcium levels [5] of the same compound?
A: fell within the normal range of physiological calcium

Q: What does the source list for `C=C1/C(=C\C=C2/CCC[C@]3(C)[C@@H]([C@H](C)CCCC(C)(C)O)CC[C@@H]23)C[C@@H](O)C[C@@H]1O` [Calcitriol, 1,25-dihydroxycholecalciferol]?
A: [3H]-Thymidine Incorporation MCF-7 cells (% of Control) (MCF-7 cells [1]; 10 nM of each hormone): 67 ± 8 % of Control; effect on MCF-7 cell proliferation ([3H]-thymidine incorporation) (MCF-7 cells [1]): stimulate cell growth

From patent US7361664B2, “Vitamin D receptor antagonists and related compositions and methods of use” (The United States of America as represented by the …, priority 2001, dated 2008)
